Data taken from patent US20060205949A1, “Crystalline forms of a biphenyl compound” (THERAVANCE, INC., priority 2005, published 2006).

Columns and labels:
[1] = Pre-Micronization
[2] = Differential scanning calorimetry (thermal stability); format: physicochemical; details: DSC trace, 10° C./min
Protocol: Differential scanning calorimetry (DSC) was performed using a TA Instruments Model Q-10 module with a Thermal Analyst controller. Data were collected and analyzed using TA Instruments Thermal Solutions software. A sample of about 1 mg was accurately weighed into an aluminum pan with lid. The sample was evaluated using a linear heating ramp of 10° C./min from ambient temperature to approximately 250° C. The DSC cell was purged with dry nitrogen during use.

[3] = 6 weeks; −20° C. closed, 40° C./75% RH open and closed, 50° C. closed; all conditions
Protocol: Samples of the crystalline mononapadisylate salt of Example 2, about 200 mg each, were stored in multiple 3 mL borosilicate vials at −20° C. (closed container), 40° C./75% RH (open and closed container), and at 50° C. (closed container). At specific intervals, the entire contents of a representative vial was analyzed by the following HPLC method:
Column: Agilent Zorbox SB-C18, 4.6×250 mm, 5 μm; Mobile Phase A: 98% water, 2% ACN, 0.1% TFA; Mobile Phase B: 10% water, 90% ACN; 0.1% TFA; Flow rate: 1 mL/min; Injection Volume: 20 μL; Detector: 220 nm; Gradient-Time in minutes (% Mobile Phase B): 0.0 (10); 4.00 (20); 26.00 (28); 34.40 (100); 38.40 (100); 38.50 (10); and 45.00 (10). […] These stock solutions were diluted to 1 mg/mL in 10% ACN for injection onto the HPLC.

[4] = pH 4.5
Protocol: A solution was prepared with 0.1 mg/mL freebase equivalents (using a crystalline mononapadisylate salt prepared as described in Example 2) in 10 mM citrate buffered normal saline, pH 4.5. […] Less than 0.5% degradation was observed after storage for one month at 40° C./75% RH.

[5] = Dynamic moisture sorption (DMS) assessment; format: physicochemical
Protocol: A dynamic moisture sorption (DMS) assessment (also known as a moisture sorption-desorption profile) was performed for samples of the crystalline naphthalene-1,5-disulfonic acid salts using a VTI atmospheric microbalance, SGA-100 system (VTI Corp., Hialeah, Fla. 33016). A sample size of approximately 10 mg was used and the humidity was set at the ambient value at the start of the analysis. A typical DMS analysis consisted of three scans: ambient to 2% relative humidity (RH), 2% RH to 90% RH, 90% RH to 5% RH at a scan rate of 5% RH/step. The mass was measured every two minutes and the RH was changed to the next value (+/−5% RH) when the mass of the sample was stable to within 0.01% for 5 consecutive points.

## O=C(CCN1CCC(OC(=O)Nc2ccccc2-c2ccccc2)CC1)NCCCCCNCc1ccc(O)cc1.O=S(=O)(O)c1cccc2c(S(=O)(=O)O)cccc12 [Crystalline Mononapadisylate Salt of Biphenyl-2-ylcarbamic Acid 1-2-[5-(4-Hydroxybenzylamino)pentylcarbamoyl]ethyl]piperidin-4-yl Ester]
[1]
  particle size D (v, 0.1): 2.5 μm
  particle size D (v, 0.5): 9.4 μm
  particle size D (v, 0.9): 22.1 μm
[2]
  thermal decomposition temperature (no thermal decomposition below): ≥ 225 °C
[3]
  change in chemical purity (HPLC): no detectable change
  change in the appearance of the material: no observable change
[4]; 0.1 mg/mL freebase equivalents in 10 mM citrate buffered normal saline, one month at 40° C./75% RH
  degradation in solution: Less than 0.5%
[4]; 10 mM citrate buffered normal saline
  solubility: approximately 0.4 mg/mL
[5]; DMS trace
  sorption/desorption profile and hygroscopicity: reversible sorption/desorption profile with low hygroscopicity
[5]; exposed to 2-90% RH
  weight gain: 4.5%
[5]; humidity range of 40-70% RH
  weight gain: 0.7%
[5]; humidity range of 40-75% RH
  weight gain: 0.8%
[5]; humidity range of 40-75% RH, listed as crystalline mononapadisylate salt of the compound of formula I
  weight gain: less than 0.8%
